One experiment has as its target human Factor XIa (Homo sapiens, UniProt P03951). Kind of experiment: biochemical. The conditions noted are these: purified human Factor XIa, substrate S-2366, HEPES buffer pH 7.4.
A further experiment deals with human plasma kallikrein (Homo sapiens, UniProt P03952). Kind of experiment: biochemical. The settings on record: purified human plasma kallikrein, substrate S-2302, sodium phosphate buffer pH 7.5.

The values that follow come from patent publication US9777001B2 (priority 2014, dated 2017).

As usually defined, the Ki is the dissociation constant of the complex between target and ligand, obtained from inhibition or displacement. Read a low Ki as a stronger hold on the target.

Where a name gives a salt, the structure may show the parent alone.

Sequence of human Factor XIa (P03951 388-625 limits assumed): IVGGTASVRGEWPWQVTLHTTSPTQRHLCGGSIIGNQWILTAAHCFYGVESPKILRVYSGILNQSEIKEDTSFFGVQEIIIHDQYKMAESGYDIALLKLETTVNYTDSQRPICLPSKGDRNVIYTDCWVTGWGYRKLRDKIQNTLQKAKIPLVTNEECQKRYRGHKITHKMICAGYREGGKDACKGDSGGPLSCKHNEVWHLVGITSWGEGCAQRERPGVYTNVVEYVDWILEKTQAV
Sequence of human Factor XIa (P03951 19-387 partner limits assumed): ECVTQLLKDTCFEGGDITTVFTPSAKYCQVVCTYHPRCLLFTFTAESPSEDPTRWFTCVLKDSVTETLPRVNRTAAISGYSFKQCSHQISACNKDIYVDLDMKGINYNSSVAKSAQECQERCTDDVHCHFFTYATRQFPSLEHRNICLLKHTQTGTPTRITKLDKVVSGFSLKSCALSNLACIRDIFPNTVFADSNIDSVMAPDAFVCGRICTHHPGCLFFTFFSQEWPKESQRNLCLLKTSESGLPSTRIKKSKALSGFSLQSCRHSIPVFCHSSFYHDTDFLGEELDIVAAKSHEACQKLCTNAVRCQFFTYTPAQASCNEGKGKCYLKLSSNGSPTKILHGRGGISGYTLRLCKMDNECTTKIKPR
Sequence of human plasma kallikrein (P03952 391-638 limits assumed): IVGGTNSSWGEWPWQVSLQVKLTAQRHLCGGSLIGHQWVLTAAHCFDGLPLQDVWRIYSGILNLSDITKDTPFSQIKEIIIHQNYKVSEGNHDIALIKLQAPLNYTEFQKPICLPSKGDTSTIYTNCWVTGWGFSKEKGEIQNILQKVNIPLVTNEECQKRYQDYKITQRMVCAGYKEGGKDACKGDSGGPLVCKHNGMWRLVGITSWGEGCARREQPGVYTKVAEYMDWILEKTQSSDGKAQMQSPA
Sequence of human plasma kallikrein (P03952 20-390 partner limits assumed): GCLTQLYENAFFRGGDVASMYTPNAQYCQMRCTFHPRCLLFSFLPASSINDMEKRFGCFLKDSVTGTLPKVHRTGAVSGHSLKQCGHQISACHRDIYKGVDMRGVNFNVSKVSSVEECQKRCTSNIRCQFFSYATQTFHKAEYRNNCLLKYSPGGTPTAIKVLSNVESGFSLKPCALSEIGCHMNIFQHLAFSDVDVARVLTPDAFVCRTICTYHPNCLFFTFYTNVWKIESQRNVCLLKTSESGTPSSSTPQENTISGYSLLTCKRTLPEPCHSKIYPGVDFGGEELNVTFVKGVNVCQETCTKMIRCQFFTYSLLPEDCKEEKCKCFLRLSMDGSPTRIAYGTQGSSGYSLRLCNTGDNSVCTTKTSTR

Consider `C[C@@H]1CCC[C@H](n2cnc(-c3cc(Cl)ccc3-n3cc(C(F)(F)F)nn3)cc2=O)c2cc(ccn2)-c2ccc(CO)cc2NC1=O` [Example 37, (10R,14S)-14-(4-{5-chloro-2-[4-(trifluoromethyl)-1H-1,2,3-triazol-1-yl]phenyl}-6-oxo-1,6-dihydropyrimidin-1-yl)-5-(hydroxymethyl)-10-methyl-8,16-diazatricyclo[13.3.1.0^2,7]nonadeca-1(19),2(7),3,5,15,17-hexaen-9-one trifluoroacetate], for which the Ki at human Factor XIa was found to be 0.18 nM; at human plasma kallikrein, 18 nM.

Consider `C[C@@H]1CCC[C@H](n2cnc(-c3cc(Cl)ccc3-n3cc(Cl)nn3)cc2=O)c2cc(ccn2)-c2ccc(OC(F)F)cc2NC1=O` [Example 93, (10R,14S)-14-{4-[5-chloro-2-(4-chloro-1H-1,2,3-triazol-1-yl)phenyl]-6-oxo-1,6-dihydropyrimidin-1-yl}-5-(difluoromethoxy)-10-methyl-8,16-diazatricyclo [13.3.1.0^2,7]nonadeca-1(19),2(7),3,5,15,17-hexaen-9-one trifluoroacetate], for which the Ki was found to be 100 nM on human Factor XIa and 4000 nM at human plasma kallikrein.

On to `Cc1ccc(-n2cc(C(F)(F)F)nn2)c(-c2cc(=O)n([C@H]3CCC[C@@H](C)C(=O)Nc4cc(C#N)ccc4-c4ccnc3c4)cn2)c1` [Example 82, (10R,14S)-10-methyl-14-(4-{5-methyl-2-[4-(trifluoromethyl)-1H-1,2,3-triazol-1-yl]phenyl}-6-oxo-1,6-dihydropyrimidin-1-yl)-9-oxo-8,16-diazatricyclo [13.3.1.0^2,7]nonadeca-1(19),2(7),3,5,15,17-hexaene-5-carbonitrile], for which the Ki on human Factor XIa was 1.9 nM; at human plasma kallikrein, 176 nM.

Consider `C[C@@H]1CCC[C@H](n2cnc(-c3cc(Cl)ccc3-n3cc(Cl)nn3)cc2=O)c2ccnc(c2)-c2ccc(C#N)cc2NC1=O` [Example 112, (10R,14S)-14-{4-[5-chloro-2-(4-chloro-1H-1,2,3-triazol-1-yl)phenyl]-6-oxo-1,6-dihydropyrimidin-1-yl}-10-methyl-9-oxo-8,18-diazatricyclo [13.3.1.0^2,7]nonadeca-1(19),2(7),3,5,15,17-hexaene-5-carbonitrile], for which the values for the Ki at human Factor XIa and at human plasma kallikrein were 0.22 nM and 19 nM, respectively.

With `COc1ccc(-n2cc(C(F)(F)F)nn2)c(-c2cc(=O)n([C@H]3CCC[C@@H](C)C(=O)Nc4ccc(F)cc4-c4cncc3c4)cn2)c1` [Example 107, (10R,14S)-4-Fluoro-14-(4-{5-methoxy-2-[4-(trifluoromethyl)-1H-1,2,3-triazol-1-yl]phenyl}-6-oxo-1,6-dihydropyrimidin-1-yl)-10-methyl-8,17-diazatricyclo[13.3.1.0^2,7]nonadeca-1(19),2(7),3,5,15,17-hexaen-9-one], the Ki stood at 142 nM on human Factor XIa and 1400 nM on human plasma kallikrein.

For the compound `C[C@@H]1CCC[C@H](n2cnc(-c3cc(Cl)ccc3-n3cc(C(F)(F)F)nn3)cc2=O)c2cc(ccn2)-c2ccc(C(N)=O)cc2NC1=O` [Example 76, (10R,14S)-14-(4-{5-chloro-2-[4-(trifluoromethyl)-1H-1,2,3-triazol-1-yl]phenyl}-6-oxo-1,6-dihydropyrimidin-1-yl)-10-methyl-9-oxo-8,16-diazatricyclo [13.3.1.0^2,7]nonadeca-1(19),2(7),3,5,15,17-hexaene-5-carboxamide], the Ki came out at 0.44 nM on human Factor XIa and 36 nM on human plasma kallikrein.

As for `C[C@@H]1CCC[C@H](n2cnc(-c3c(-n4cc(Cl)nn4)ccc(Cl)c3F)cc2=O)c2cc(ccn2)-c2cc(F)ccc2NC1=O` [Example 142, (10R,14S)-14-{4-[3-chloro-6-(4-chloro-1H-1,2,3-triazol-1-yl)-2-fluorophenyl]-6-oxo-1,6-dihydropyrimidin-1-yl}-4-fluoro-10-methyl-8,16-diazatricyclo [13.3.1.0^2,7]nonadeca-1(19),2(7),3,5,15,17-hexaen-9-one trifluoroacetate], the inhibitory constant (Ki) at human Factor XIa was 1 nM; at human plasma kallikrein it was 7 nM.

With `C[C@H]1CCC[C@H](n2cnc(-c3cc(Cl)ccc3-n3cc(C(F)(F)F)nn3)cc2=O)c2ccnc(c2)-c2cc(F)ccc2NC1=O` [Example 145, (10S,14S)-14-(4-{5-chloro-2-[4-(trifluoromethyl)-1H-1,2,3-triazol-1-yl]phenyl}-6-oxo-1,6-dihydropyrimidin-1-yl)-4-fluoro-10-methyl-8,18-diazatricyclo[13.3.1.0^2,7]nonadeca-1(19),2,4,6,15,17-hexaen-9-one], the Ki is 1.6 nM on human Factor XIa and 100 nM on human plasma kallikrein.

`Cc1ccc(-n2cc(C(F)(F)F)nn2)c(-c2cc(=O)n([C@H]3CCC[C@@H](C)C(=O)Nc4ccccc4-c4ccnc3c4)cn2)c1` [Example 81, (10R,14S)-10-methyl-14-(4-{5-methyl-2[4-(trifluoromethyl)-1H-1,2,3-triazol-1-yl]phenyl}-6-oxo-1,6-dihydropyrimidin-1-yl)-8,16-diazatricyclo [13.3.1.0^2,7]nonadeca-1(19),2(7),3,5,15,17-hexaen-9-one]: the Ki on human Factor XIa was 0.63 nM; on human plasma kallikrein it was 66 nM.

`C[C@@H]1CCC[C@H](n2cnc(-c3cc(Cl)ccc3-n3cc(Cl)nn3)cc2=O)c2cc(ccn2)-c2ccc(C(F)(F)C(N)=O)cc2NC1=O` [Example 90, 2-[(10R,14S)-14-{4-[5-chloro-2-(4-chloro-1H-1,2,3-triazol-1-yl)phenyl]-6-oxo-1,6-dihydropyrimidin-1-yl}-10-methyl-9-oxo-8,16-diazatricyclo[13.3.1.0^2,7]nonadeca-1(19),2(7),3,5,15,17-hexaen-5-yl]-2,2-difluoroacetamide trifluoroacetate] gave an inhibition constant Ki at human Factor XIa of 7.1 nM.
